{
  "source": "patent US20230285357A1",
  "about": "“COMPOSITIONS AND METHODS FOR […] CELLS” (The Regents of the University of California, priority 2020, published 2023)",
  "system": "GFP+CD31+ aortic cells",
  "assay": "Hindlimb ischemia model with GFP+CD31+ aortic cells of treated mice",
  "assay_type": "in vivo, mouse",
  "details": "mice transplanted with GFP+CD31+ aortic cells of treated group",
  "method": "The capacity of GFP+CD31+ aortic cells for vascular repair was examined by using hindlimb ischemia model. […] The murine model of hindlimb ischemia was performed as previously described. A 10 mm long incision of the skin was made towards the medial thigh. The femoral artery was exposed and separated from femoral vein and nerve. Silk sutures were used to tie the proximal and the distal end of femoral artery with double knots. The cells (5×10^5) were transplanted into the surgical area and the incision was closed. Laser Doppler perfusion imaging was used to monitor the blood flow at different time points. Histology and immunostaining were used to examine the vascularization 2 weeks after transplantation.",
  "data": [
    {"smiles": "Cn1cc(C2=C(c3ccc(Cl)cc3Cl)C(=O)NC2=O)c2ccccc21", "note": "[SB216763]", "values": [
      {"measurement": "limb blood flow, Laser Doppler perfusion imaging", "value": "higher limb blood flow"},
      {"measurement": "vascular density, histology", "value": "increase in vascular density"}
    ]}
  ]
}
